# Data as given in US3974277A, “2-[2-(5-Nitro-2-furyl)vinyl]-4-(anilino)quinazolines as growth promotants and feed efficiency enhancing agents” (Diamond Shamrock Corporation, priority 1975, dated 1976).
# Positions of bridges follow the written chain, without caps; N, C: chain ends. Non-standard residues stand in square brackets, D forms with d. Residues, ends and D or L forms follow the SMILES beside them. *: point of attachment. Ileψ(thiazoline)Cys = CC[C@H](C)[C@H](N)C1=N[C@H](C(=O)*)CS1; dOrn = NCCC[C@@H](N)C(=O)O
# Tests used:
# [1] = Chick growth promotion and feed efficiency at low levels, Example VIII (Table II); type: in vivo, broiler cross chicks
# Excerpt: Day old broiler cross chicks were weight equalized into groups of 8 chicks each and were placed in battery brooders. The 32 chick treatment groups (4 replicates) were fed one of the five rations described below for a 4 week period. Weekly measurements of body weights and feed consumption were made by replicate, and these measurements used to calculate weight gain and feed efficiency.
# The basal ration was the basal ration used in Example VII above. The remaining five rations were obtained by mixing the indicated quantities by bacitracin (4 g/T), chlortetracycline (10 g/T), product of Example I (10 g/T), and product of Example III of U.S. Pat. No. 3,542,784 -- Burch (10 g/T) as growth promotants with the basal ration.
# [2] = Chick growth promotion comparison, Example XI (Table V); type: in vivo, broiler cross chicks; details: 25 g/T, 4 weeks
# Excerpt: The growth promotion tests described in Example X were repeated with the exception that five replicates of 8 chicks each were fed the formulations described in Table V for 4 weeks.
# [3] = Chick growth promotion, Example XII repeat test (Table VII); type: in vivo, broiler cross chicks; details: second set of tests, 25 g/T
# Excerpt: (§1) The growth promotion tests described in Example X were repeated with the additional testing the products of Examples II and III.
# Vibrio coli = experiment: Bactericide test, agar growth inhibition; type: cell-based; details: vs chlortetracycline
# Excerpt: (§2) Test formulations were examined for bactericidal and/or bacteriostatic activity against the test organisms shown in Tables A and B. These organisms were chosen as being representative of commercially important pathogens affecting animal agriculture. The antibiotic chlortetracycline was chosen as a positive control, since it has a broad spectrum of activity against a large number of organisms, and its activity can be used for comparative purposes.
# (§3) Basic test formulations of the product of Examples I, II, III, and of chlortetracycline were prepared by dissolving 16 mg (0.016 g) in 2.0 ml of stock emulsifier solution (0.25% Triton X-155 in acetone by volume) and making each solution up to 50 ml with deionized water. The concentration of the test compound in the basic formuation was 320 ppm. Lower concentrations of the test compound were obtained by diluting the basic formulation with a 4% solution of the stock emulsifier in deionized water so that each dilution in the series differed only in test compound content.
# (§4) Nutrient-tryptic soy agar (NTA) consisting of 2.0% Difco Bactoagar 0.8% nutrient broth (Difco), and 0.5% tryptic soy broth (Difco) was prepared and sterilized by autoclaving. A 2 ml aliquot of each test formulation was added to 8 ml of molten NTA. This mixture was then plated in a sterile polystyrene petri dish (100 × 15 mm). After the agar was set, suspensions of each of the test organisms were simultaneously streaked into the surface of the agar. The inoculated plates were incubated for 48 hr at 28°C. The inhibition of growth of each organism was rated by visual comparison with the organism developing on non-treated agar. Growth inhibition reported as per cent control was rated in three categories as follows: 0% control, growth equivalent to that on non-treated agar; 50% control, sparse development and separated colonies; 100% control, no visible growth or development of colonies.
# Streptococcus agalactiae = experiment: Bactericide test, agar growth inhibition; type: cell-based; details: vs chlortetracycline
# Excerpt: as §2, §3, §4
# [4] = system: Erysipelothrix rhusiopathiae; experiment: Bactericide test, agar growth inhibition; type: cell-based; details: vs chlortetracycline
# Excerpt: as §2, §3, §4
# Streptococcus group E = experiment: Bactericide test, agar growth inhibition; type: cell-based; details: vs chlortetracycline
# Excerpt: as §2, §3, §4
# [5] = system: Bordetella bronchiseptica; experiment: Bactericide test, agar growth inhibition; type: cell-based; details: vs chlortetracycline
# Excerpt: as §2, §3, §4
# [6] = Chick growth promotion, Example XII first test (Table VI); type: in vivo, broiler cross chicks; details: first set of tests, 25 g/T
# Excerpt: as §1
# [7] = Chick growth promotion titration dosage, Example IX (Table III); type: in vivo, broiler cross chicks
# Excerpt: The concentrations used in this test were 6.25, 12.5, 25, 50, 100, 200 and 400 g of the Product of Example I per ton of the Basal Ration described in Example VII above. The same number and size chick treatment groups were used in this test as in Example VIII above.
# Streptococcus faecalis = experiment: Bactericide test, agar growth inhibition; type: cell-based; details: vs chlortetracycline
# Excerpt: as §2, §3
# as §4, with “colonies. […]” for “colonies.”
# [8] = Swine growth rate and feed efficiency, Example XIII (Table VIII); type: in vivo, weanling pigs; details: 25 g/T
# Excerpt: Thirty-six weanling pigs weighing approximately 30 pounds each in good physical condition and originating from a common source were used in these tests. The pigs were allocated into sex and weight equalized pens of six pigs each. A 1 week period was allowed for acclimatization before testing. Three replicates of six pigs were fed the basal ration described below, and three replicates were fed the same basal ration supplemented with 25 g/T of the product of Example I.
# The basal ration was a 17% commercial corn-soya pelletized formulation which was free of antibiotic and drug components. Composition of the basal ration formulation was: […]
# The rations were offered ad libitum from 6 bushel self-feeders with a continuous supply of fresh water. The same ration formulations were used throughout the 6 week feeding period. Individual pig weighing were made after 0, 2, 4 and 6 (termination) week periods. Feed consumption records were kept on a pen basis, with feed efficiency conversion being compiled at the end of the 2nd, 4th and 6th (termination) week of feeding. Complete morbidity and mortality records were kept.
# [9] = Chick growth promotion comparison, Example X (Table IV); type: in vivo, broiler cross chicks; details: 25 g/T
# Excerpt: This example compares growth promotion activity of the product of Example I with other growth promotants at a concentration of 25 g/T in the Basal Ration described in Example VII. The other growth promotants include the product described in Example I of U.S. Pat. No. 3,542,784 -- Burch and quinoxaline-1,4-dioxide. Day old broiler cross chicks were weight equalized into groups of 8 chicks each, and four replicates of 8 chicks each were fed the experimental rations over a 4 week period.
SMILES,effect on growth rate and feed efficiency (in words) [3],effectiveness compared with chlortetracycline (Vibrio coli),effectiveness compared with chlortetracycline (Streptococcus agalactiae),effectiveness compared with chlortetracycline [4],effectiveness compared with chlortetracycline (Streptococcus group E),effectiveness compared with chlortetracycline [5],effect on growth rate and feed efficiency (in words) [6],effectiveness compared with chlortetracycline (Streptococcus faecalis),other results
CC[C@H](C)[C@H](N)C1=N[C@H](C(=O)N[C@@H](CC(C)C)C(=O)N[C@H](CCC(=O)O)C(=O)N[C@H](C(=O)N[C@H]2CCCCNC(=O)[C@H](CC(N)=O)NC(=O)[C@@H](CC(=O)O)NC(=O)[C@H](Cc3cnc[nH]3)NC(=O)[C@@H](Cc3ccccc3)NC(=O)[C@H]([C@@H](C)CC)NC(=O)[C@@H](CCCN)NC2=O)[C@@H](C)CC)CS1 [Bacitracin] ({Ileψ(thiazoline)Cys}-L[dE]IK[dOrn]I[dF]H[dD]N; lactam 4-C),–,–,–,–,–,–,–,–,"Improved Response Over Basal Ration, Feed Efficiency ([1]; 4 g/T, 4 weeks): +1.2%; Improved Response Over Basal Ration, Gain ([1]; 4 g/T, 4 weeks): -2.3%; Improved Response Over Basal Ration, Feed Efficiency [2]: +3.1%; Improved Response Over Basal Ration, Gain [2]: +1.2%"
"O=[N+]([O-])c1ccc(C=Cc2nc(Nc3ccc(O)cc3)c3ccccc3n2)o1 [Example I, 2-[2-(5-nitro-2-furyl)vinyl]-4-(p-hydroxyanilino)quinazoline]",moderate improvements in production parameters in both tests,considerably more effective,considerably more effective,considerably more effective,considerably more effective,considerably more effective,moderate improvements in production parameters in both tests,considerably more effective,growth promotion (in words) ([1]; low levels in feed): greater growth promotion than any of the other growth promotants; weight gain (in words) ([7]; 100 g/T): unexplained absence of weight gain improvement; activity (in words) ([7]; 400 g/T): sharp downturn; growth and feed efficiency (in words) [8]: very substantial growth improvement and enhanced feed efficiency
"O=[N+]([O-])c1ccc(C=Cc2nc(Nc3cccc(O)c3)c3ccccc3n2)o1 [Example II, 2-[2-(5-nitro-2-furyl)vinyl]-4-(m-hydroxyanilino)quinazoline]",–,considerably more effective,considerably more effective,considerably more effective,considerably more effective,considerably more effective,moderate improvements,considerably more effective,–
"O=[N+]([O-])c1ccc(-c2nc(Nc3ccc(O)cc3)c3ccccc3n2)o1 [Example III of U.S. 3,542,784 - Burch, 2-(5-nitro-2-furyl)-4-(p-hydroxyanilino)quinazoline, reference compound]",essentially no effect on growth rate or feed efficiency in either test,–,–,–,–,–,essentially no effect on growth rate or feed efficiency in either test,–,–
"O=[N+]([O-])c1ccc(C=Cc2nc(Nc3ccccc3)c3ccccc3n2)o1 [Example IV, 2-[2-(5-nitro-2-furyl)vinyl]-4-anilinoquinazoline]",–,considerably more effective,considerably more effective,considerably more effective,considerably more effective,considerably more effective,–,considerably more effective,–
"[O-][n+]1cc[n+]([O-])c2ccccc21 [Quinoxaline-1,4-dioxide, quinoxaline-1,4-dioxide]",–,–,–,–,–,–,–,–,response in growth rate and feed efficiency (in words) [9]: did not have any apparent effect
